Reference: article PMC10318456, “Selective inhibitors of the PSEN1–gamma-secretase complex” (The Journal of Biological Chemistry, 2023)

Assays:
[1] = system: PSEN1 versus PSEN2 γ-secretase complexes; experiment: Comparison of the four MEF cell lines: selectivity between γ-secretase complexes (IC50 ratios); assay type: cell-based, human
Description: Mouse embryonic fibroblast (MEF) cells deficient for the Psen and Aph1 genes (Psen1/2^−/−, Aph1ABC^−/−) were reconstituted with human PSEN1 or PSEN2 and with human APH1A or APH1B to generate four independent cell lines, each constitutively expressing exclusively one type of γ-secretase complex (Fig. S1A) ([19]). A human APP-C99-GFP reporter was introduced to enable the measurement of Aβ peptides in the conditioned media of the cells to monitor γ-secretase activity. The assay was established in a 96-well format.
GraphPad Prism 7 software was used to generate inhibition fitting curves (four-parameter logistic equation, nonlinear regression) and to determine IC50 and 95% CI values (Fig. S2). Selectivity values (IC50 ratios of PSEN1 versus PSEN2) above 10 are highlighted in red.
The number of plated cells and incubation times were determined in respect to linearity of Aβ peptide secretion, the dynamic range of Aβ peptide quantification in the medium, and sensitivity to dimethylsulfoxide (DMSO). […] MEF cells were plated in DMEM F12 supplemented with 10% FCS at 10,000 cells per well in 96-well clear bottom plates in the late afternoon and cultured for 16 h at 37 °C, 5% CO2. In the morning of the second day, the medium was replaced with 60 μl of DMEM/F12 supplemented with 2% FCS, and GSI or DMSO (controls) were added. Compounds were tested in serial dilutions with concentrations ranging from […] to 0.1 nM with 3-fold changes. The final concentration of DMSO in all wells was 0.2%. Plates were put in the incubator again at 37 °C, 5% CO2. After 8 h, the culture media were collected, and 30 μl was used to measure Aβ40 peptides. The cell viability was assessed using the CellTiter-Glo Luminescent assay (Promega) that measures ATP production. All screens were performed at one site, and reported IC50 values throughout the manuscript are from this site (Beerse) unless otherwise indicated.
GraphPad Prism 7 software (https://www.graphpad.com) was used to generate inhibition fitting curves (four-parameter logistic equation, nonlinear regression) and to determine IC50 values and 95% CI.

[2] = target: T1, PSEN1 W165A–APH1A γ-secretase complex (Homo sapiens, UniProt P49768, W165A); experiment: Aβ40 secretion, MEF cell pool restored with PSEN1 W165A–APH1A; assay type: cell-based; conditions: decimal comma
T1 construct: expressed in transfected cells; host or cells: Psen1/2 double KO/Aph1ABC triple KO MEFs, pools without clonal selection
Experimental: (§1) We turned to experimental site–directed mutagenesis and selected a series of amino acids (Fig. 3) in the entrance channel for mutation to alanine. […] More importantly, they were all enzymatically active as shown by the secretion of Aβ40 in the supernatants of the cell cultures (Fig. 3B).
(§2) Conditional Psen1/2 double KO mice were crossed with conditional Aph1ABC triple KO mice ([29], [52], [58], [59]). At embryonic day 7.5, embryos were dissected and dissociated, and cells were plated in the presence of Dulbecco’s modified Eagle’s medium (DMEM)/F12 50% fetal calf serum (FCS) (Invitrogen). Primary MEFs were immortalized by transduction with LargeT antigen. Psen1/2 double KO/Aph1ABC triple KO MEFs were generated by transduction with a Cre-GFP–expressing adenoviral vector, and GFP-positive MEFs were sorted by fluorescence-activated cell sorting analysis. Psen1/2 Aph1ABC-deficient MEFs were maintained in DMEM/f12 10% FCS. To rescue γ-secretase expression, Psen1/2 double KO/Aph1ABC triple KO MEFs were transduced using Murine Stem Cell Virus retroviral vector system (pMSCV) viral vectors (Clontech) containing the human coding sequences of the different PSEN and APH1 homologs and the zeocin selection marker. An Internal Ribosome Entry Site sequence was cloned between the coding sequences for PSEN and APH1 to ensure co-expression of both proteins. Stable transfected cell lines were selected using 500-μg/ml zeocin (Invitrogen). Four different combinations were made: PSEN1 and APH1AL, PSEN1 and APH1B, PSEN2 and APH1AL, and PSEN2 and APH1B. These cell lines were transduced with pMSCV viral vectors (Clontech) expressing APP-C99-GFP-puromycin. […]
(§3) The number of plated cells and incubation times were determined in respect to linearity of Aβ peptide secretion, the dynamic range of Aβ peptide quantification in the medium, and sensitivity to dimethylsulfoxide (DMSO). […] The cell viability was assessed using the CellTiter-Glo Luminescent assay (Promega) that measures ATP production. […] We however measured five compounds at the Leuven site and noticed that absolute IC50 values were different (Fig. S2). […]

[3] = target: T2, PSEN1 Y154A–APH1A γ-secretase complex (Homo sapiens, UniProt P49768+Q92542+Q96BI3+Q9NZ42, Y154A); experiment: Aβ40 secretion, MEF cell pool restored with PSEN1 Y154A–APH1A; assay type: cell-based; conditions: PSEN1 Y154A (TM2)–APH1A cell pool; N = 3 to 4; mean (95% CI); decimal comma
T2 construct: expressed in transfected cells; host or cells: Psen1/2 double KO/Aph1ABC triple KO MEFs, pools without clonal selection
Experimental: as §1, §2, §3

[4] = target: T3, PSEN1 W165A–APH1A γ-secretase complex (Homo sapiens, UniProt P49768+Q92542+Q96BI3+Q9NZ42, W165A); experiment: Aβ40 secretion, MEF cell pool restored with PSEN1 W165A–APH1A; assay type: cell-based; conditions: PSEN1 W165A (TM3)–APH1A cell pool; N = 3 to 4; mean (95% CI); decimal comma
T3 construct: expressed in transfected cells; host or cells: Psen1/2 double KO/Aph1ABC triple KO MEFs, pools without clonal selection
Experimental: as §1, §2, §3

Row | IC50 ([2]; PSEN1 W165A (TM3)–APH1A cell pool, N = 3 to 4, mean (95% CI)) [µM] | IC50 fold change to WT ([2]; PSEN1 W165A–APH1A cell pool) | IC50 [3] [µM] | IC50 [4] [µM] | Structure (SMILES) | selectivity toward the different γ-secretase complexes ([1]; four MEF cell lines) [fold] | selectivity for PSEN1 complexes versus PSEN2 complexes ([1]; IC50 ratios of PSEN1 versus PSEN2, MEF cell lines) [fold] | selectivity PSEN1–APH1B versus PSEN1–APH1A ([1]; MEF cell lines) [fold]
1 | 0.304 | 1,802 fold | – | – | C[C@H](NC(=O)Cc1cc(F)cc(F)c1)C(=O)N[C@H](C(=O)OC(C)(C)C)c1ccccc1 [DAPT] | < 10 | – | –
2 | – | – | 1.03 | 0.102 | O=S(=O)(c1ccc(Cl)cc1)N1[C@H]2CC[C@@H]([C@H]1c1ccc(C(F)(F)F)cc1)[C@@H](O)C2 [(+)-9b] | – | > 250 | 4
